Source: patent US20230372313A1, “METHODS FOR REDUCING GLYCOSPHINGOLIPID CONCENTRATION IN BRAIN TISSUE AND METHODS OF TREATMENT OF NEURODEGENERATIVE DISEASES INVOLVING THE SAME” (GENZYME CORPORATION, priority 2020, published 2023)
Where two headings read alike, the source gives them in different places.

Assay: Plasma pharmacokinetics of Compound 2 in PD participants (LC-MS/MS)
Assay type: in vivo, human
Conditions: plasma, plasma; for AUC(0-t) / Cmax / Tmax: human, po, 15 mg; for Tmax: read-out: tmax, median
Protocol: Participants were randomised to 3 doses of once-daily orally administered Compound 2 or placebo, in sequential cohort design, and were followed up to 36 weeks (52 weeks for Japanese participants). Participants in the low-dose group received 4 mg of Compound 2 as a once daily oral dose; participants in the mid-dose group received 8 mg of Compound 2 a once daily oral dose; and participants in the high-dose group received 15 mg of Compound 2 a once daily oral dose.
Analyses were based on all available data from participants who enrolled in part 1 of the trial and were randomised to receive either Compound 2 or placebo for up to 52 weeks for Japanese participants and 36 weeks for the ROW population. As part 1 was an exploratory, dose-escalation study, the sample size was not based on a statistical power calculation. Participants included in the primary safety analyses were those who were randomized and received at least one dose of Compound 2 or placebo. A data monitoring committee was responsible for overseeing the safety of patients and the risk/benefit ratio throughout the study. Duration of exposure to Compound 2 was different among the doses, as per the sequential cohort design, with the low- and high-dose cohorts commencing the study first and last, respectively. For pharmacokinetics, plasma parameters were calculated using noncompartmental methods, from plasma Compound 2 concentrations obtained after single dose administration. AUC0-24 and AUC0-48 were calculated using the trapezoidal method over a predefined time period of 24 hours or 48 hours, respectively. CLss/F was calculated using the following equation: CLss/F=Dose/AUCτ, where τ is the dosing interval. For pharmacodynamics, percent reduction of plasma or CSF GL-1 from baseline was calculated as (value−baseline)/baseline×100. Formal statistical testing was not conducted on MDS-UPDRS scale assessments.
The secondary outcome was to evaluate the pharmacokinetic profile of Compound 2 in plasma and cerebrospinal fluid (CSF) over a 4-week period. Plasma pharmacokinetic parameters included maximum plasma concentration (Cmax), time to Cmax (tmax), and area under the plasma concentration versus time curve from 0 to 24 h (AUC0-24). All parameters were assessed at Week 0 and Week 4 after treatment. In addition, AUC0-48 was assessed at Week 0, trough plasma concentration observed just before treatment administration during repeated dosing (Ctrough) was assessed at Weeks 2, 4, and 8 (FIG. 3), and total systemic clearance from plasma at steady state (CLSS/F) was assessed at Week 4. Plasma samples were collected at 1 hour pre-dose and 1, 2, 4, 8, 24, and 48 hours postdose. Compound 2 concentration in plasma was determined using a liquid chromatography tandem mass spectrometry method with a lower limit of quantification of 0.500 ng/mL. CSF samples were collected by lumbar puncture during the screening period (within 14 days prior to randomisation) or on the day of randomisation, and at Week 4, within 2 to 4 hours postdose. Compound 2 concentration in CSF was determined using a liquid chromatography tandem mass spectrometry method with a lower limit of quantification of 0.100 ng/mL.

[1] = Day 1, Japan, High 15 mg oral, n = 3
[2] = Week 4, ROW, High 15 mg once daily oral, n = 4
[3] = Week 4, Japan, High 15 mg once daily oral, n = 2
[4] = Week 4, Japan, High 15 mg vs Low 4 mg
[5] = Week 4, Japan, Low 4 mg once daily oral, n = 1
[6] = Week 4, Japan, Mid 8 mg once daily oral, n = 3
[7] = Week 4, Japan, Mid 8 mg vs Low 4 mg
[8] = Week 4, ROW, High 15 mg vs Low 4 mg
[9] = Week 4, ROW, Low 4 mg once daily oral, n = 4
[10] = Week 4, ROW, Mid 8 mg once daily oral, n = 5
[11] = Week 4, ROW, Mid 8 mg vs Low 4 mg

CC(C)(NC(=O)O[C@@H]1CN2CCC1CC2)c1csc(-c2ccc(F)cc2)n1 [Compound 2, (S)-quinuclidin-3-yl (2-(2-(4-fluorophenyl)thiazol-4-yl)propan-2-yl)carbamate]
AUC(0-t) (Day 1, Japan, High 15 mg oral, n = 3, read-out: AUC0-24, Geometric mean): 977 ng·h/mL | AUC(0-t) (Day 1, Japan, High 15 mg oral, n = 3, read-out: AUC0-24, mean): 990 ng·h/mL | AUC(0-t) (Day 1, Japan, High 15 mg oral, n = 3, read-out: AUC0-48, Geometric mean): 1570 ng·h/mL | AUC(0-t) (Day 1, Japan, High 15 mg oral, n = 3, read-out: AUC0-48, mean): 1590 ng·h/mL | Cmax (Day 1, Japan, High 15 mg oral, n = 3, read-out: Cmax, mean): 54.1 ng/mL | Tmax [1]: 4.1 h | AUC(0-t) (Day 1, ROW, High 15 mg oral, n = 4, read-out: AUC0-24, Geometric mean): 868 ng·h/mL | AUC(0-t) (Day 1, ROW, High 15 mg oral, n = 4, read-out: AUC0-24, mean): 873 ng·h/mL | AUC(0-t) (Day 1, ROW, High 15 mg oral, n = 4, read-out: AUC0-48, Geometric mean): 1440 ng·h/mL | AUC(0-t) (Day 1, ROW, High 15 mg oral, n = 4, read-out: AUC0-48, mean): 1450 ng·h/mL | Cmax (Day 1, ROW, High 15 mg oral, n = 4, read-out: Cmax, Geometric mean): 47.1 ng/mL | Cmax (Day 1, ROW, High 15 mg oral, n = 4, read-out: Cmax, mean): 47.4 ng/mL | Tmax (Day 1, ROW, High 15 mg oral, n = 4): 3.94 h | AUC(0-t) (Week 4, Japan, High 15 mg once daily oral, n = 2, read-out: AUC0-24, Geometric mean): 3140 ng·h/mL | AUC(0-t) (Week 4, Japan, High 15 mg once daily oral, n = 2, read-out: AUC0-24, mean): 3150 ng·h/mL | Cmax (Week 4, Japan, High 15 mg once daily oral, n = 3, read-out: Cmax, Geometric mean): 144 ng/mL | Cmax (Week 4, Japan, High 15 mg once daily oral, n = 3, read-out: Cmax, mean): 145 ng/mL | Tmax (Week 4, Japan, High 15 mg once daily oral, n = 3): 2.1 h | AUC(0-t) (Week 4, ROW, High 15 mg once daily oral, n = 4, read-out: AUC0-24, Geometric mean): 2490 ng·h/mL | AUC(0-t) (Week 4, ROW, High 15 mg once daily oral, n = 4, read-out: AUC0-24, mean): 2510 ng·h/mL | Cmax (Week 4, ROW, High 15 mg once daily oral, n = 4, read-out: Cmax, Geometric mean): 135 ng/mL | Cmax (Week 4, ROW, High 15 mg once daily oral, n = 4, read-out: Cmax, mean): 136 ng/mL | Tmax [2]: 2.89 h | Cmax, Geometric mean [1]: 53.3 ng/mL | CLss/F, Geometric mean [3]: 4770 mL/h | CLss/F, mean [3]: 4780 mL/h | AUC0-24, Fold increase vs low dose [4]: 2.78 fold | CLss/F, Fold increase vs low dose [4]: 1.35 fold | Cmax (geometric mean), Fold increase vs low-dose [4]: 2.56 fold | CLss/F, Geometric mean [5]: 3540 mL/h | CLss/F, mean [5]: 3540 mL/h | CLss/F, Geometric mean [6]: 4930 mL/h | CLss/F, mean [6]: 5010 mL/h | Cmax, mean [6]: 83.7 ng/mL | AUC0-24, Fold increase vs low dose [7]: 1.43 fold | CLss/F, Fold increase vs low dose [7]: 1.39 fold | Cmax (geometric mean), Fold increase vs low-dose [7]: 1.47 fold | CLss/F, Geometric mean [2]: 6030 mL/h | CLss/F, mean [2]: 6100 mL/h | AUC0-24, Fold increase vs low dose [8]: 3.26 fold | CLss/F, Fold increase vs low dose [8]: 1.15 fold | Cmax (geometric mean), Fold increase vs low-dose [8]: 3.29 fold | CLss/F, Geometric mean [9]: 5240 mL/h | CLss/F, mean [9]: 5270 mL/h | CLss/F, Geometric mean [10]: 5370 mL/h | CLss/F, mean [10]: 5450 mL/h | AUC0-24, Fold increase vs low dose [11]: 1.95 fold | CLss/F, Fold increase vs low dose [11]: 1.02 fold | Cmax (geometric mean), Fold increase vs low-dose [11]: 1.85 fold | Ctrough versus dose (Weeks 2, 4, and 8 (FIG. 3)): increased in a dose-proportional manner
